Earlier results in US20220347144A1, “COMPOSITIONS AND METHODS FOR PREVENTING AND/OR REDUCING WEIGHT GAIN AND ASSOCIATED CONDITIONS” (University of Virginia Patent Foundation, priority 2019, published 2022).

Tests used:
rats [1] = details: triglyceride form, Kojima et al., 2010; cited from earlier work
rats [2] = details: in rapeseed oil, Hulan et al., 1977; cited from earlier work

| SMILES | obesity (rats [1]) | heart lesions (rats [2]) |
| --- | --- | --- |
| CCCCCCCCCCCCCCCCCCCCCC(=O)O [behenic acid] | prevented obesity | – |
| CCCCCCCC/C=C\CCCCCCCCCCCC(=O)O [erucic acid, (Z)-docos-13-enoic acid] | – | implicated in causing heart lesions |
